According to article PMC10840383, “Clinical features, functional consequences, and rescue pharmacology of missense GRID1 and GRID2 human variants” (Human Molecular Genetics, 2023):
Numbering of substitutions follows the chain as printed.

What was measured:
Type in all cases: cell-based
GluD1-R341Q = target: T1, GluD1-R341Q (Homo sapiens, UniProt Q9ULK0, R341Q); assay: TEVC of constitutive current, Xenopus oocytes expressing GluD1-R341Q
T1 construct: expressed in transfected cells; host or cells: Xenopus laevis oocytes injected with cRNA
T1 sequence (Q9ULK0 21-1009 R341Q): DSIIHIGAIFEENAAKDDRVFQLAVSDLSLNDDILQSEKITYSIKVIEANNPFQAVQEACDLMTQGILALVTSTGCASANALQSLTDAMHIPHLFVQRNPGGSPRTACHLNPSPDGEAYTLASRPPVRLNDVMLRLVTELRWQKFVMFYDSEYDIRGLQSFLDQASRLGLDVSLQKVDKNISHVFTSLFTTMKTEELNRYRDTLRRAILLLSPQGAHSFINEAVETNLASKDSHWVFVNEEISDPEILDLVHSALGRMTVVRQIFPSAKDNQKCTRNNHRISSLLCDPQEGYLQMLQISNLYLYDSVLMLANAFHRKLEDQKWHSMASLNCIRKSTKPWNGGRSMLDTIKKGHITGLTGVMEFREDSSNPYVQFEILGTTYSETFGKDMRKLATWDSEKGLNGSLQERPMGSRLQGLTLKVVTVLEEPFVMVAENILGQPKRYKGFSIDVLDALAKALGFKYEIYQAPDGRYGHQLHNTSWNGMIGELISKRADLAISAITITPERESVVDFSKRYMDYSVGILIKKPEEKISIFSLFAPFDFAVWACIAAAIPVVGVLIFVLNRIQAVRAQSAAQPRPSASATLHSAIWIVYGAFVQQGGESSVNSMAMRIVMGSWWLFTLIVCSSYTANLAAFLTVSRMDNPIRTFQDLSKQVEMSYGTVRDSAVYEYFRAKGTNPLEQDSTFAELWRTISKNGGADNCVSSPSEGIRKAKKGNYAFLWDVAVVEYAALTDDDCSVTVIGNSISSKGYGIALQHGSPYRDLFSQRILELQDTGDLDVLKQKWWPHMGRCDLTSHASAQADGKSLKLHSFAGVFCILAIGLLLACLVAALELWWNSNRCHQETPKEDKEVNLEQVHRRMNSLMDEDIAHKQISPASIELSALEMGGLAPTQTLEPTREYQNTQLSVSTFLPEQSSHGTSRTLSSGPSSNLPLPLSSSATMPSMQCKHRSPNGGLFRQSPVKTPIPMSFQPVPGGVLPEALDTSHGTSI

GluD1-WT = target: T2, GluD1-WT (Homo sapiens, UniProt Q9ULK0); assay: TEVC of constitutive current, Xenopus oocytes expressing GluD1-WT; settings: positive = increase, negative = decrease of activity
T2 construct: expressed in transfected cells; host or cells: Xenopus laevis oocytes injected with cRNA
T2 sequence (Q9ULK0 21-1009): T1 sequence (Q9ULK0 21-1009 R341Q) with Q321R

[1] = tested on: constitutively active GluD1 and GluD2 receptor variants; assay: Inhibition of constitutive currents of GluD variants by channel blockers, Xenopus oocytes
Experimental: Xenopus laevis oocytes were prepared from ovaries purchased from Xenopus 1 (Dexter, MI) as previously described, [68] and incubated at 16°C in culture Barth’s solution (in mM) 88 NaCl, 2.4 NaHCO3, 1 KCl, 0.33 Ca(NO3)2, 0.41 CaCl2, 0.82 MgSO4, 10 HEPES, pH 7.4 with NaOH, supplemented with 1 U/ml penicillin and 1 μg/ml streptomycin. Oocytes were injected with approximately 5–40 ng RNA per oocyte and then incubated at 16–19°C for 1–3 days in culture Barth’s solution. The levels of GluD2-A654D and GluD2-A654T cRNA were reduced to 1.5 ng and 2.5 ng, respectively, due to oocyte toxicity. Two-electrode voltage clamp (TEVC) recordings were performed as previously described. Unless otherwise specified, extracellular solution contained (in mM) 90 NaCl, 3 KCl, 0.5 BaCl2, 0.01 EDTA, 10 HEPES, and was brought to pH 7.4 with NaOH. The oocytes were placed in a dual track recording chamber and gravity perfused with solution exchange controlled via a computer-driven 8-valve positioner (Digital MVP Valve). […] Recording electrodes were filled with 0.3 M KCl, and currents were recorded with membrane voltage held at −40 mV. To establish constitutive activity of recombinant receptors when compared to wild type receptors, we used the oocyte recording solution described above, but with 90 mM N-methyl-D-glucamine (NMDG) chloride replacing 90 mM NaCl. […] In addition to establishing constitutive activity, 90 mM NMDG was used in recording protocols with drug treatment to obtain the percent maximum theoretical inhibition of a compound, or to determine the relative degree of drug potentiation. For Ca^2+ concentration-response curves, choline chloride was used to maintain equimolar concentrations of Cl^− ions in the extracellular solution across the changing concentrations of calcium chloride. All compounds used in this study for concentration-response oocyte recordings were dissolved in deionized water as 50–100 mM stock solutions. In some rescue pharmacology experiments, we substituted 1 mM CaCl2 for 0.5 mM BaCl2 to evaluate Ca^2+-dependent control of receptor responses.

For `N[C@H](CO)C(=O)O` [D-serine], the “Effect on current, in words” value (GluD1-R341Q) was “insensitive”, the “D-Serine effect (Baseline −10 mM D-Serine)” value (GluD1-R341Q; 10 mM D-serine, positive = increase, negative = decrease of activity) was 7.2 ± 1.8 (6) nA and the “D-Serine effect (Baseline −10 mM D-Serine)” value (GluD1-WT; 10 mM D-serine) was 2.3 ± 2.9 (13) nA.
`CC12CC3CC(C)(C1)CC(N)(C3)C2` [Memantine, memantine] was tested, and the “Inhibition of constitutive currents, in words” value [1] was “more effectively than ketamine”.
With `N=C(N)c1ccc(OCCCCCOc2ccc(C(=N)N)cc2)cc1` [Pentamidine, pentamidine] the “Pentamidine effect (Baseline −100 μM Pentamidine)” value (GluD1-R341Q; 100 μM pentamidine, positive = increase, negative = decrease of activity) was 64 ± 15 (6) nA, the “Inhibition of constitutive currents, in words” value [1] was “inhibits” and the “Pentamidine effect (Baseline −100 μM Pentamidine)” value (GluD1-WT; 100 μM pentamidine) was 37 ± 11 (14) nA.
